Measured values published in patent US9597407B2, “Targeted antimicrobial moieties” (C3 Jian, Inc., priority 2009, dated 2017).
Entries after “also recorded” stand apart in the source; their conditions may differ.

Key:
microorganisms [1] = assay: Peptide activities: binding, antimicrobial, growth or phenotype altering (Table 8)
Description: In certain embodiments, peptides described herein can have multiple activities. Thus for example, a peptide can have both binding/targeting activity and antimicrobial activity. Such peptides can be used, e.g., in a chimeric construct, for any or all of these properties. Thus, for example, a peptide designated “B” in Table 8 can be used as a targeting peptide. If it is also designated G or M it can also be used for antimicrobial activity.

microorganisms [2] = assay: Morphology, biofilm and growth disruption by peptides (Table 5); assay type: cell-based; set-up: key: A: Peptide aggregates; B: Less hyphal formation; Clumps; Diffuse clumps and small polyps; F: Diffuse growth; H: Thin; I: Growth inhibition; Microcolony formation; Rippled; Small polyps; Thick; W: Halo formation on top, microlonies on bottom
Description: In certain embodiments peptides that induce alterations in phenotype or other biological activities can also be used as antimicrobial effector moieties.

bacteria = assay: Binding of targeting peptides to microorganisms (Table 3); conditions: preferably 1x PBS; for Target(s): microorganism bound by the targeting peptide, binding in aqueous buffers chosen by peptide solubility
[3] = peptide binding in aqueous buffers that varied depending on peptide solubility

## PF-482 (LVGYVRTSGTVRSYKIN; Peptide with targeting and/or antimicrobial activity)
Microorganisms [1]
  Activities: G B
Microorganisms [2]; S. pneumoniae
  Organism, effect (morphology, biofilm and growth disruption): S. pneumoniae (S)

## PF-380 (KKIIPLITLFVVTLVG; Peptide with targeting and/or antimicrobial activity)
Microorganisms [1]
  Activities: G B
Microorganisms [2]; C. jejuni
  Organism, effect: C. jejuni (D)
Microorganisms [2]; E. coli
  Organism, effect: E. coli (C)
Microorganisms [2]; E. faecalis
  Organism, effect: E. faecalis (C)
Microorganisms [2]; MRSA
  Organism, effect: MRSA (D)
Microorganisms [2]; P. aeruginosa
  Organism, effect: P. aeruginosa (A)
Microorganisms [2]; S. epidermidis
  Organism, effect: S. epidermidis (C)
Microorganisms [2]; S. pneumoniae
  Organism, effect: S. pneumoniae (D)

## PF-577 (PFETRESFRVPVIGILGGWDYFMHP; Peptide with targeting and/or antimicrobial activity)
Microorganisms [1]
  Activities: G B
Microorganisms [2]; C. jejuni
  Organism, effect (morphology, biofilm and growth disruption): C. jejuni (R)
Microorganisms [2]; E. coli
  Organism, effect (morphology, biofilm and growth disruption): E. coli (A)
Microorganisms [2]; E. faecalis
  Organism, effect (morphology, biofilm and growth disruption): E. faecalis (A)
Microorganisms [2]; MRSA
  Organism, effect (morphology, biofilm and growth disruption): MRSA (M)
Microorganisms [2]; P. aeruginosa
  Organism, effect (morphology, biofilm and growth disruption): P. aeruginosa (A)
Microorganisms [2]; S. epidermidis
  Organism, effect (morphology, biofilm and growth disruption): S. epidermidis (A)
Microorganisms [2]; S. pneumoniae
  Organism, effect (morphology, biofilm and growth disruption): S. pneumoniae (R)

## PF-539 (SIILTKKKRRKIPLSIDSQIYKYTFKQ; Peptide with targeting and/or antimicrobial activity)
Microorganisms [1]
  Activities: G B
Microorganisms [2]; MRSA
  Organism, effect (morphology, biofilm and growth disruption): MRSA (H)
Microorganisms [2]; S. pneumoniae
  Organism, effect (morphology, biofilm and growth disruption): S. pneumoniae (A)

## PF-057 (TMIVISIPRFEEYMKARHKKWM; Peptide with targeting and/or antimicrobial activity)
Microorganisms [1]
  Activities: G B
Microorganisms [2]; C. albicans
  Organism, effect: C. albicans (A)
Microorganisms [2]; C. jeikeium
  Organism, effect: C. jeikeium (A)
Microorganisms [2]; C. jejuni
  Organism, effect: C. jejuni (D)
Microorganisms [2]; E. coli
  Organism, effect: E. coli (M)
Microorganisms [2]; E. faecalis
  Organism, effect: E. faecalis (A)
Microorganisms [2]; M. luteus
  Organism, effect: M. luteus (C)
Microorganisms [2]; MRSA
  Organism, effect: MRSA (M)
Microorganisms [2]; S. epidermidis
  Organism, effect: S. epidermidis (D)
Microorganisms [2]; S. pneumoniae
  Organism, effect: S. pneumoniae (R)

## PF-548 (ARPIADLIHFNSTTVTASGDVYYGPG; Peptide with targeting and/or antimicrobial activity)
Microorganisms [1]
  Activities: G B
Microorganisms [2]; B. subtilis
  Organism, effect (morphology, biofilm and growth disruption): B. subtilis (C)
Microorganisms [2]; C. jeikeium
  Organism, effect (morphology, biofilm and growth disruption): C. jeikeium (R)
Microorganisms [2]; C. jejuni
  Organism, effect (morphology, biofilm and growth disruption): C. jejuni (D)
Microorganisms [2]; M. luteus
  Organism, effect (morphology, biofilm and growth disruption): M. luteus (A)
Microorganisms [2]; MRSA
  Organism, effect (morphology, biofilm and growth disruption): MRSA (M)
Microorganisms [2]; S. epidermidis
  Organism, effect (morphology, biofilm and growth disruption): S. epidermidis (M)
Microorganisms [2]; S. pneumoniae
  Organism, effect (morphology, biofilm and growth disruption): S. pneumoniae (D)

## PF-619 (chain 1 WSRVPGHSDTGWKVWHRW; chain 2 WSRVPGHSDTGWKVWHRW; Peptide with targeting and/or antimicrobial activity)
Microorganisms [1]
  Activities: G B
Microorganisms [2]; E. coli
  Organism, effect (morphology, biofilm and growth disruption): E. coli (C)
Microorganisms [2]; MRSA
  Organism, effect (morphology, biofilm and growth disruption): MRSA (M)
Microorganisms [2]; S. epidermidis
  Organism, effect (morphology, biofilm and growth disruption): S. epidermidis (M)
Microorganisms [2]; S. pneumoniae
  Organism, effect (morphology, biofilm and growth disruption): S. pneumoniae (C)

## PF-460 (MEHVLPFQNTPPNIVIIYKDFTHLKSITFS; Peptide with targeting and/or antimicrobial activity)
Microorganisms [1]
  Activities: G B
Microorganisms [2]; E. coli
  Organism, effect (morphology, biofilm and growth disruption): E. coli (H)
Microorganisms [2]; E. faecalis
  Organism, effect (morphology, biofilm and growth disruption): E. faecalis (C)
Microorganisms [2]; MRSA
  Organism, effect (morphology, biofilm and growth disruption): MRSA (C)
Microorganisms [2]; S. epidermidis
  Organism, effect (morphology, biofilm and growth disruption): S. epidermidis (C)
Microorganisms [2]; S. pneumoniae
  Organism, effect (morphology, biofilm and growth disruption): S. pneumoniae (R)

## PF-386 (FTLTLITTIVAILNYKDKKK; Peptide with targeting and/or antimicrobial activity)
Microorganisms [1]
  Activities: G B
Microorganisms [2]; E. coli
  Organism, effect: E. coli (C)
Microorganisms [2]; E. faecalis
  Organism, effect: E. faecalis (C)
Microorganisms [2]; MRSA
  Organism, effect: MRSA (C)
Microorganisms [2]; S. epidermidis
  Organism, effect: S. epidermidis (C)

## PF-578 (QKANLRIGFTYTSDSNVCNLTFALLGSK; Peptide with targeting and/or antimicrobial activity)
Microorganisms [1]
  Activities: G B
Microorganisms [2]; E. coli
  Organism, effect (morphology, biofilm and growth disruption): E. coli (C)
Microorganisms [2]; M. luteus
  Organism, effect (morphology, biofilm and growth disruption): M. luteus (C)
Microorganisms [2]; MRSA
  Organism, effect (morphology, biofilm and growth disruption): MRSA (C)
Microorganisms [2]; P. mirabilis
  Organism, effect (morphology, biofilm and growth disruption): P. mirabilis (C)
Microorganisms [2]; S. epidermidis
  Organism, effect (morphology, biofilm and growth disruption): S. epidermidis (D)
Microorganisms [2]; S. mutans
  Organism, effect (morphology, biofilm and growth disruption): S. mutans (D)
Microorganisms [2]; S. pneumoniae
  Organism, effect (morphology, biofilm and growth disruption): S. pneumoniae (D)

## PF-556 (SLQIRMNTLTAAKASIEAA; Peptide with targeting and/or antimicrobial activity)
Microorganisms [1]
  Activities: G B
Microorganisms [2]; B. subtilis
  Organism, effect (morphology, biofilm and growth disruption): B. subtilis (C)
Microorganisms [2]; C. jeikeium
  Organism, effect (morphology, biofilm and growth disruption): C. jeikeium (D)
Microorganisms [2]; C. jejuni
  Organism, effect (morphology, biofilm and growth disruption): C. jejuni (R)
Microorganisms [2]; E. faecalis
  Organism, effect (morphology, biofilm and growth disruption): E. faecalis (A)
Microorganisms [2]; M. luteus
  Organism, effect (morphology, biofilm and growth disruption): M. luteus (A)
Microorganisms [2]; MRSA
  Organism, effect (morphology, biofilm and growth disruption): MRSA (M)
Microorganisms [2]; S. epidermidis
  Organism, effect (morphology, biofilm and growth disruption): S. epidermidis (A)
Microorganisms [2]; S. pneumoniae
  Organism, effect (morphology, biofilm and growth disruption): S. pneumoniae (D)

## PF-440 (MFIISPDLFNIAVILYILFFIHDILLLILS; Peptide with targeting and/or antimicrobial activity)
Microorganisms [1]
  Activities: G B
Microorganisms [2]; E. coli
  Organism, effect (morphology, biofilm and growth disruption): E. coli (R)
Microorganisms [2]; E. faecalis
  Organism, effect (morphology, biofilm and growth disruption): E. faecalis (C)
Microorganisms [2]; MRSA
  Organism, effect (morphology, biofilm and growth disruption): MRSA (C)
Microorganisms [2]; S. epidermidis
  Organism, effect (morphology, biofilm and growth disruption): S. epidermidis (C)
Microorganisms [2]; S. pneumoniae
  Organism, effect (morphology, biofilm and growth disruption): S. pneumoniae (R)

## PF-292 (SFVSTTVRLIFEESKRYKF; Peptide with targeting and/or antimicrobial activity)
Microorganisms [2]; B. subtilis
  Organism, effect: B. subtilis (C)
Microorganisms [2]; S. epidermidis
  Organism, effect: S. epidermidis (C)
bacteria
  Target(s): S. epidermidis; also recorded: B. subtilis; also recorded: B. fragilis

## PF-613 (ADEFAKL; Peptide with targeting and/or antimicrobial activity)
Microorganisms [2]; E. faecalis
  Organism, effect (morphology, biofilm and growth disruption): E. faecalis (A)
Microorganisms [2]; MRSA
  Organism, effect (morphology, biofilm and growth disruption): MRSA (C)
Microorganisms [2]; S. epidermidis
  Organism, effect (morphology, biofilm and growth disruption): S. epidermidis (R)
bacteria; [3]
  Target(s) (microorganism bound by the targeting peptide): C. jeikeium

## VWENRKKYLENEIERHNVFLKLGQEVIKGLNALASRGR [PF-257]
Microorganisms [2]; M. luteus
  Organism, effect: M. luteus (R)
bacteria
  Target(s): S. epidermidis

## PF-234 (RTPYILRS; Peptide with targeting and/or antimicrobial activity)
Microorganisms [2]; M. luteus
  Organism, effect: M. luteus (T)
bacteria
  Target(s): S. epidermidis; also recorded: M. luteus

## PF-640 (chain 1 MGDINRNF; chain 2 MGDINRNF; Peptide with targeting and/or antimicrobial activity)
Microorganisms [2]; C. albicans
  Organism, effect (morphology, biofilm and growth disruption): C. albicans (B)
Microorganisms [2]; E. faecalis
  Organism, effect (morphology, biofilm and growth disruption): E. faecalis (H)
Microorganisms [2]; S. pneumoniae
  Organism, effect (morphology, biofilm and growth disruption): S. pneumoniae (I)
bacteria; [3]
  Target(s) (microorganism bound by the targeting peptide): C. albicans

## PF-C071 (QVIVKIL; Peptide with targeting and/or antimicrobial activity)
Microorganisms [2]; F. nucleatum
  Organism, effect (morphology, biofilm and growth disruption): F. nucleatum (T)
bacteria; [3]
  Target(s) (microorganism bound by the targeting peptide): A. naeslundii; also recorded: F. nucleatum; also recorded: S. mutans

## PF-133 (GDPTAGQKPVECP; Peptide with targeting and/or antimicrobial activity)
Microorganisms [2]; C. jeikeium
  Organism, effect: C. jeikeium (R)
bacteria
  Target(s): S. epidermidis; also recorded: C. jeikeium; also recorded: C. jejuni; also recorded: M. smegmatis

## PF-417 (DSYFRS; Peptide with targeting and/or antimicrobial activity)
Microorganisms [2]; MRSA
  Organism, effect: MRSA (M)
Microorganisms [2]; S. epidermidis
  Organism, effect: S. epidermidis (M)
Microorganisms [2]; S. pneumoniae
  Organism, effect: S. pneumoniae (M)
bacteria; [3]
  Target(s) (microorganisms bound by the targeting peptide): S. epidermidis; also recorded: C. jeikeium; also recorded: C. jejuni

## PF-297 (ISKGIDDIVYVINKILSIGNIFKIIKRK; Peptide with targeting and/or antimicrobial activity)
Microorganisms [2]; B. subtilis
  Organism, effect: B. subtilis (C)
Microorganisms [2]; S. epidermidis
  Organism, effect: S. epidermidis (C)
bacteria
  Target(s): S. epidermidis; also recorded: B. subtilis; also recorded: B. fragilis

## PF-192 (VEEDEAPPPHY; Peptide with targeting and/or antimicrobial activity)
Microorganisms [2]; S. epidermidis
  Organism, effect: S. epidermidis (D)
bacteria
  Target(s): S. epidermidis; also recorded: M. luteus; also recorded: P. aeruginosa; also recorded: C. albicans; also recorded: E. faecalis; also recorded: C. jeikeium

## PF-642 (chain 1 FTTPMIGIPAGLLGGSYYLKRREEKGK; chain 2 FTTPMIGIPAGLLGGSYYLKRREEKGK; Peptide with targeting and/or antimicrobial activity)
Microorganisms [2]; MRSA
  Organism, effect (morphology, biofilm and growth disruption): MRSA (M)
bacteria; [3]
  Target(s) (microorganism bound by the targeting peptide): M. luteus and MRSA and C. jeikeium

## PF-681 (chain 1 TALTTVGVSGARLITYCVGVEDI; chain 2 TALTTVGVSGARLITYCVGVEDI; Peptide with targeting and/or antimicrobial activity)
Microorganisms [2]; C. jeikeium
  Organism, effect (morphology, biofilm and growth disruption): C. jeikeium (R)
Microorganisms [2]; E. faecalis
  Organism, effect (morphology, biofilm and growth disruption): E. faecalis (R)
Microorganisms [2]; MRSA
  Organism, effect (morphology, biofilm and growth disruption): MRSA (M)
Microorganisms [2]; S. epidermidis
  Organism, effect (morphology, biofilm and growth disruption): S. epidermidis (M)
Microorganisms [2]; S. pneumoniae
  Organism, effect (morphology, biofilm and growth disruption): S. pneumoniae (M)
bacteria; [3]
  Target(s) (microorganism bound by the targeting peptide): M. smegmatis
